Key:
Format in all cases: cell-based
[1] = target: T1, human TLR7 (Homo sapiens, UniProt Q9NYK1); assay: TLR7 inhibition reporter assay (HEK-Blue cells, SEAP reporter, gardiquimod stimulation); conditions: HEK-Blue cells overexpressing human TLR7, SEAP reporter, gardiquimod 7.5 μM; read-out: TLR7 IC50
T1 construct: host or cells: HEK-Blue cells
T1 sequence (Q9NYK1 27-1049): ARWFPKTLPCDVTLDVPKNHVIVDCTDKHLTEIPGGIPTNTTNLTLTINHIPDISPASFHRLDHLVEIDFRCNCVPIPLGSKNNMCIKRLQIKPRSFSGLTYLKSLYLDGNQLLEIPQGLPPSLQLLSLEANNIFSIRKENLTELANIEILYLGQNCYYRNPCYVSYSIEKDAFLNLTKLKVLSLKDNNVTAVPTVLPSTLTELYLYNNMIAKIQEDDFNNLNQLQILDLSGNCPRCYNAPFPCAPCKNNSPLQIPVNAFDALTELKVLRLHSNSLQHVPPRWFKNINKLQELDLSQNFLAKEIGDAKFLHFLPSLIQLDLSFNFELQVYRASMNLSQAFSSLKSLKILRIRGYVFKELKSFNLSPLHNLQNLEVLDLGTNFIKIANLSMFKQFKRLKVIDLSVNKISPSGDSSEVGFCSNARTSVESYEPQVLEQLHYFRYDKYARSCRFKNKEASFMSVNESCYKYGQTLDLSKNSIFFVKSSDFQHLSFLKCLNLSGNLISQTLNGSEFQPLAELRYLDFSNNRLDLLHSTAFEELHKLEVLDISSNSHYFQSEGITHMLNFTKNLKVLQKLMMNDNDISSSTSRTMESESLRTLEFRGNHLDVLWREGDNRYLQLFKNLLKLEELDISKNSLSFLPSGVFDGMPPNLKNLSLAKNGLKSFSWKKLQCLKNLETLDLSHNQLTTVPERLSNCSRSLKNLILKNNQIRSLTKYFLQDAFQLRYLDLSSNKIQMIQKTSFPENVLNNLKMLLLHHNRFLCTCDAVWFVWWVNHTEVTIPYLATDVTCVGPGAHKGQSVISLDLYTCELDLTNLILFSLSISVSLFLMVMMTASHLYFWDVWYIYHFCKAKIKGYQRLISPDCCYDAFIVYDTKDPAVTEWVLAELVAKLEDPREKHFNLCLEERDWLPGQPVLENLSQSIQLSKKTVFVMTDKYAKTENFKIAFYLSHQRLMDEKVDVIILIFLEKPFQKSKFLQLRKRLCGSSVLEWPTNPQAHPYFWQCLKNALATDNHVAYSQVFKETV
Procedure, shortened: (§1)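 HEK-Blue cells overexpressing human TLR7, TLR8 or TLR9 carry a SEAP reporter driven by NF-κB/AP-1 sites. Compounds (0.05 nM–50 μM) were preincubated 30 min at room temperature, then cells were stimulated with gardiquimod 7.5 μM (TLR7), R848 15.9 μM (TLR8) or ODN2006 5 nM (TLR9) for 22 h at 37 °C.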

[2] = target: T2, human TLR8 (Homo sapiens, UniProt Q9NR97); assay: TLR8 inhibition reporter assay (HEK-Blue cells, SEAP reporter, R848 stimulation); conditions: HEK-Blue cells overexpressing human TLR8, SEAP reporter, R848 15.9 μM; read-out: TLR8 IC50
T2 construct: host or cells: HEK-Blue cells
T2 sequence (Q9NR97 27-1041): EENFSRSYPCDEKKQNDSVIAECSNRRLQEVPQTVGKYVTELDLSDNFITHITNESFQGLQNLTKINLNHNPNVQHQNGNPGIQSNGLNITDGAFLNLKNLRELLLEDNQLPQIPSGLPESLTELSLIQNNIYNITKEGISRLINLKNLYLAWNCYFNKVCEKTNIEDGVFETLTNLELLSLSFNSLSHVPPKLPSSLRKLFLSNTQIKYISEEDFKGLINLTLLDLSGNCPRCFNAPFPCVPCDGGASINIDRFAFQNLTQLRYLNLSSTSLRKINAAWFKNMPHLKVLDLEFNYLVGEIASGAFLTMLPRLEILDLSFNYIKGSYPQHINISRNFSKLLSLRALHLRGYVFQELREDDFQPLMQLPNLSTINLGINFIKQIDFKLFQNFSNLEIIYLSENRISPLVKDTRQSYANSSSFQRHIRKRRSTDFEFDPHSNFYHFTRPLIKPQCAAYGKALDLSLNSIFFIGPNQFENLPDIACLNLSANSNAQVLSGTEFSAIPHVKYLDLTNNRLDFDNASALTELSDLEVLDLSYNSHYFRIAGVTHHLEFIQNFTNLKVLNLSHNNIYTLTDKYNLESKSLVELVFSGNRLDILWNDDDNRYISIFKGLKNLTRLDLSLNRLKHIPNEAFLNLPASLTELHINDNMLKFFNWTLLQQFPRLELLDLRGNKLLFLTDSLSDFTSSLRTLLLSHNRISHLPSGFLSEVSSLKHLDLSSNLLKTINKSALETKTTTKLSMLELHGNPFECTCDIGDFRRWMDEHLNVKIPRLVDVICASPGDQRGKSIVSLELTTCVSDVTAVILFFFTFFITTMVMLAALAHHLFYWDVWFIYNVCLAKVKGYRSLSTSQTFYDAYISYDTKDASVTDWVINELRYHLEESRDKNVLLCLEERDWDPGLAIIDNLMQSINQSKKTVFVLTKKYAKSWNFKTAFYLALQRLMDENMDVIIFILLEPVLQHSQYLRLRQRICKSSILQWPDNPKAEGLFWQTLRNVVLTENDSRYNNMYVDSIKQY
Procedure, shortened: as §1

[3] = target: T3, human TLR9 (Homo sapiens, UniProt Q9NR96); assay: TLR9 inhibition reporter assay (HEK-Blue cells, SEAP reporter, ODN2006 stimulation); conditions: HEK-Blue cells overexpressing human TLR9, SEAP reporter, ODN2006 5 nM
T3 construct: host or cells: HEK-Blue cells
T3 sequence (Q9NR96 26-1032): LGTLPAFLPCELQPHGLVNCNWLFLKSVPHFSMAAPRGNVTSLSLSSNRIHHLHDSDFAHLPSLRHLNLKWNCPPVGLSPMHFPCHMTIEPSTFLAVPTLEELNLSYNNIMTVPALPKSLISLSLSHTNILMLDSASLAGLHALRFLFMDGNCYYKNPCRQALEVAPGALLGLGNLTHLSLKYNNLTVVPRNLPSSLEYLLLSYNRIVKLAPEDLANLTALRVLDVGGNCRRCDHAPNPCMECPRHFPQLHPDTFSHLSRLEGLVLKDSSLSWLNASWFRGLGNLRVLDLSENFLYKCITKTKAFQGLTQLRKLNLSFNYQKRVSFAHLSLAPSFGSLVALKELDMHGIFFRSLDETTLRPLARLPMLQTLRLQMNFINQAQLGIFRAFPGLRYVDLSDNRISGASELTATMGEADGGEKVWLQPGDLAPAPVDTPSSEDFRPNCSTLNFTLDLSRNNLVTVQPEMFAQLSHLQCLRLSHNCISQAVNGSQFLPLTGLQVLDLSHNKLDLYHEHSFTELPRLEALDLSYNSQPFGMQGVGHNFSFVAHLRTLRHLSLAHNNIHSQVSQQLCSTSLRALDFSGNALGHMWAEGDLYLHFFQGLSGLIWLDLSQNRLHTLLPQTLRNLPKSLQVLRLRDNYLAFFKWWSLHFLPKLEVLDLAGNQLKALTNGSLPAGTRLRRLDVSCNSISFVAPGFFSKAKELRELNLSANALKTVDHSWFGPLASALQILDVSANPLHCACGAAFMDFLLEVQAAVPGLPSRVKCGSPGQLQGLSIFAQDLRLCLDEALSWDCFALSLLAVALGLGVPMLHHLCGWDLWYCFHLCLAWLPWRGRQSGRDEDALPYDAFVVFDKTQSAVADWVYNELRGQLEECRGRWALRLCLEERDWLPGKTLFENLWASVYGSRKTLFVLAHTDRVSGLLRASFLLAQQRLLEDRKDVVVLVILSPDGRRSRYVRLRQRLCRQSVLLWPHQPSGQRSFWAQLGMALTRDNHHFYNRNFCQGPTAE
Procedure, shortened: as §1

IC50 [1] [nM]	IC50 [2] [nM]	IC50 [3] [nM]	Compound
37.4	11.9	16400	Cc1cc2ncnn2cc1-c1[nH]c2sc(C3CCC(NCC(C)(C)O)CC3)nc2c1C(C)C (single isomer, unassigned) [Example 157, 1-((4-(6-isopropyl-5-(7-methyl-[1,2,4]triazolo[1,5-a]pyridin-6-yl)-4H-pyrrolo[3,2-d]thiazol-2-yl)cyclohexyl)amino)-2-methylpropan-2-ol]
8.95	31	14300	Cc1cc2ncnn2cc1-c1[nH]c2sc(C3CCC(N(C)C(C)C)CC3)nc2c1C(C)C (single isomer, unassigned) [Example 158, N-isopropyl-4-(6-isopropyl-5-(7-methyl-[1,2,4]triazolo[1,5-a]pyridin-6-yl)-4H-pyrrolo[3,2-d]thiazol-2-yl)-N-methylcyclohexan-1-amine]
8.79	4.78	6870	Cc1cc2ncnn2cc1-c1[nH]c2sc(C3CCC(N(C)C(C)C)CC3)nc2c1C(C)C (single isomer, unassigned) [Example 159, N-isopropyl-4-(6-isopropyl-5-(7-methyl-[1,2,4]triazolo[1,5-a]pyridin-6-yl)-4H-pyrrolo[3,2-d]thiazol-2-yl)-N-methylcyclohexan-1-amine]
0.61	0.06	5300	Cc1cc2ncnn2cc1-c1[nH]c2sc(C3CCC(NC4CCOCC4)CC3)nc2c1C(C)C (single isomer, unassigned) [Example 160, N-(4-(6-isopropyl-5-(7-methyl-[1,2,4]triazolo[1,5-a]pyridin-6-yl)-4H-pyrrolo[3,2-d]thiazol-2-yl)cyclohexyl) tetrahydro-2H-pyran-4-amine]
18.1	14.7	17000	Cc1cc2ncnn2cc1-c1[nH]c2sc(C3CCC(NC4CCOCC4)CC3)nc2c1C(C)C (single isomer, unassigned) [Example 161, N-(4-(6-isopropyl-5-(7-methyl-[1,2,4]triazolo[1,5-a]pyridin-6-yl)-4H-pyrrolo[3,2-d]thiazol-2-yl)cyclohexyl) tetrahydro-2H-pyran-4-amine]
2.6	15.7	20300	COc1cc(-c2[nH]c3sc(C4CCC(N(C)CC(=O)N(C)C)CC4)nc3c2C(C)C)cn2ncnc12 (single isomer, unassigned) [Example 162, 2-((4-(6-isopropyl-5-(8-methoxy-[1,2,4]triazolo[1,5-a]pyridin-6-yl)-4H-pyrrolo[3,2-d]thiazol-2-yl)cyclohexyl)(methyl)amino)-N,N-dimethylacetamide]
1.59	20.6	9400	COc1cc(-c2[nH]c3sc(C4CCC(N(C)CC(=O)N(C)C)CC4)nc3c2C(C)C)cn2ncnc12 (single isomer, unassigned) [Example 163, 2-((4-(6-isopropyl-5-(8-methoxy-[1,2,4]triazolo[1,5-a]pyridin-6-yl)-4H-pyrrolo[3,2-d]thiazol-2-yl)cyclohexyl)(methyl)amino)-N,N-dimethylacetamide]
1.32	4.43	15600	COc1cc(-c2[nH]c3sc(C4CCC(N(C)CCS(C)(=O)=O)CC4)nc3c2C(C)C)cn2ncnc12 (single isomer, unassigned) [Example 164, 4-(6-isopropyl-5-(8-methoxy-[1,2,4]triazolo[1,5-a]pyridin-6-yl)-4H-pyrrolo[3,2-d]thiazol-2-yl)-N-methyl-N-(2-(methylsulfonyl)ethyl) cyclohexan-1-amine]
1.61	14.4	22800	COc1cc(-c2[nH]c3sc(C4CCC(N(C)CCS(C)(=O)=O)CC4)nc3c2C(C)C)cn2ncnc12 (single isomer, unassigned) [Example 165, 4-(6-isopropyl-5-(8-methoxy-[1,2,4]triazolo[1,5-a]pyridin-6-yl)-4H-pyrrolo[3,2-d]thiazol-2-yl)-N-methyl-N-(2-(methylsulfonyl)ethyl) cyclohexan-1-amine]
0.88	0.87	383	COc1cc(-c2[nH]c3sc(C4CCC(NC5CCN(C(C)C)CC5)CC4)nc3c2C(C)C)cn2ncnc12 (single isomer, unassigned) [Example 166, 1-isopropyl-N-(4-(6-isopropyl-5-(8-methoxy-[1,2,4]triazolo[1,5-a]pyridin-6-yl)-4H-pyrrolo[3,2-d]thiazol-2-yl)cyclohexyl)piperidin-4-amine]
7.37	34.8	1710	COc1cc(-c2[nH]c3sc(C4CCC(NC5CCN(C(C)C)CC5)CC4)nc3c2C(C)C)cn2ncnc12 (single isomer, unassigned) [Example 167, 1-isopropyl-N-(4-(6-isopropyl-5-(8-methoxy-[1,2,4]triazolo[1,5-a]pyridin-6-yl)-4H-pyrrolo[3,2-d]thiazol-2-yl)cyclohexyl)piperidin-4-amine]

— US20230139171A1 (SITA Information Networking Computing UK Limited, priority 2019, published 2023)
